Counter-ions that a name gives are not always drawn. Like-named read-outs stand apart in the source and are kept apart here.
Target: human neurokinin-1-receptor (NK1R) (Homo sapiens, UniProt P25103)
Test: biochemical
Type: binding
Conditions: displacement of 125I-substance P, human NK1R in COS or CHO cells
Method: To express the cloned human neurokinin-1-receptor (NK1R) transiently in COS, the cDNA for the human NK1R was cloned into the expression vector pCDM9 which was derived from pCDM8 (INVITROGEN) by inserting the ampicillin resistance gene (nucleotide 1973 to 2964 from BLUESCRIPT SK+ (trademark, […], La Jolla, Calif., USA)) into the Sac II site. Transfection of 20 ug of the plasmid DNA into 10 million COS cells was achieved by electroporation in 800 μl of transfection buffer (135 mM NaCl, 1.2 mM CaCl2, 1.2 mM MgCl2, 2.4 mM K2 HPO4, 0.6 mM KH2 PO4, 10 mM glucose, 10 mM N-2-hydroxyethyl-piperazine-N'-2-ethane sulphonic acid (HEPES) pH 7.4) at 260 V and 950 μF using the IBI GENEZAPPER (trademark IBI, New Haven, Conn., USA). The cells were incubated in 10% fetal calf serum, 2 mM glutamine, 100 U/ml penicillin-streptomycin, and 90% DMEM media (GIBCO, Grand Island, N.Y., USA) in 5% CO2 at 37° C. for three days before the binding assay.
To establish a stable cell line expressing cloned human NK1R, the cDNA was subcloned into the vector pRcCMV (INVITROGEN). Transfection of 20 μg of the plasmid DNA into CHO cells was achieved by electroporation in 800 μl of transfection buffer supplemented with 0.625 mg/ml Herring sperm DNA at 300 V and 950 μF using the IBI GENEZAPPER (IBI). The transfected cells were incubated in CHO media [10% fetal calf serum, 100 U/ml penicillin-streptomycin, 2 mM glutamine, 1/500 hypoxanthine-thymidine (ATCC), 90% IMDM media (JRH BIOSCIENCES, Lenexa, Kans., USA), 0.7 mg/ml G418 (GIBCO)] in 5% CO2 at 37° C. until colonies were visible. Each colony was separated and propagated. The cell clone with the highest number of human NK1R was selected for subsequent applications such as drug screening.
The binding assay of human NK1R expressed in either COS or CHO cells is based on the use of ^125 I-substance P (^125 I-SP, from DU PONT, Boston, Mass.) as a radioactively labeled ligand which competes with unlabeled substance P or any other ligand for binding to the human NK1R. […] The tubes were incubated at 4° C. or at room temperature for 1 hour with gentle shaking. The bound radioactivity was separated from unbound radioactivity by GF/C filter (BRANDEL, Gaithersburg, Md.) which was pre-wetted with 0.1% polyethylenimine. The filter was washed with 3 ml of wash buffer (50 mM Tris pH 7.5, 5 mM MnCl2, 50 mM NaCl) three times and its radioactivity was determined by gamma counter.

human neurokinin-1-receptor (NK1R), sequence (P25103 whole entry): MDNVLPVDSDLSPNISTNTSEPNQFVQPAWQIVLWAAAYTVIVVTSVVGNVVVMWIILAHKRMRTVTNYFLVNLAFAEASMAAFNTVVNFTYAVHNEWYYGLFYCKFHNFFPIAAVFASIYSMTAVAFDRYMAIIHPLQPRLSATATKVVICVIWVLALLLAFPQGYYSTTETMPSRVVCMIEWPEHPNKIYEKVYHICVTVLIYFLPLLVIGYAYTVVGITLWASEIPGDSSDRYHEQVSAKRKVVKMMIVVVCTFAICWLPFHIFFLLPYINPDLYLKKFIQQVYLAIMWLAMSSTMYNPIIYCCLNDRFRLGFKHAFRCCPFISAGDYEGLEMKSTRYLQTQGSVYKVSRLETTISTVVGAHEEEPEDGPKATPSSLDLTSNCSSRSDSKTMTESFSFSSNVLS

Question: For `CN1CCC[C@H](OCc2cc(C(F)(F)F)cc(C(F)(F)F)c2)[C@@H]1c1ccccc1` [Example 10, (+)-cis-3-((3,5-Bis(trifluoromethyl)phenyl)methyloxy)-1-methyl-2-phenylpiperidine], which IC50 (read-out: IC50 @ NKIR) is on record?
Answer: Its IC50 is 20 nM.

Question: Which IC50 (read-out: IC50 @ NKIR) does the source give for `FC(F)(F)c1cc(CO[C@H]2CCCN[C@H]2c2ccccc2)cc(C(F)(F)F)c1` [Example 11, (-)-cis-3-((3,5-Bis(trifluoromethyl)phenyl)methyloxy)-2-phenyl piperidine hydrochloride salt] here?
Answer: Its IC50 is 350 nM.

Question: How did the IC50 (read-out: IC50 @ NKIR) turn out when `C[N+]1(C)CCC[C@H](OCc2cc(C(F)(F)F)cc(C(F)(F)F)c2)[C@@H]1c1ccccc1` [Example 14, (2S,3S)-3-((3,5-Bis(trifluoromethyl)phenyl)methyloxy)-1,1-dimethyl2-phenylpiperidinium iodide] was run?
Answer: Its IC50 is 100 nM.

Question: Which IC50 (read-out: IC50 @ NKIR) does the source give for `O=CN1CCC[C@H](OCc2cc(C(F)(F)F)cc(C(F)(F)F)c2)[C@@H]1c1ccccc1` [Example 16, (2S,3S)-1-Formyl-3-((3,5-bis(trifluoromethyl)phenyl)methyloxy)-2-phenyl piperidine] here?
Answer: Its IC50 is 80 nM.

Question: How did the IC50 (read-out: IC50 @ NKIR) turn out when `CC1CC[C@H](OCc2cc(C(F)(F)F)cc(C(F)(F)F)c2)[C@H](c2ccccc2)N1` (stereo partly drawn) [Example 20, cis-3-(3,5-Bis(trifluoromethyl)phenyl)methyloxy-6-methyl-2-phenyl piperidinium hydrochloride] was run?
Answer: Its IC50 is 2 nM.

Question: How did the IC50 (IC50 @ NKIR) turn out when `Cc1cc(CO[C@H]2CCCN(C(=O)OC(C)(C)C)[C@H]2c2ccccc2)cc([Si](C)(C)C)c1` [Example 33] was run?
Answer: The IC50 was over 300 nM.

Question: Which IC50 (read-out: IC50 @ NKIR) does the source give for `Cc1cc(I)cc(CO[C@H]2CCCN[C@H]2c2ccccc2)c1` [Example 36] here?
Answer: Its IC50 is 0.5 nM.

Question: For `Cc1cc(CO[C@H]2CCCN[C@H]2c2ccccc2)cc([Si](C)(C)C)c1` [Example 44, cis-3-((3-methyl-5-trimethylsilyl)benzyloxy)-2-phenyl piperidine], which IC50 (IC50 @ NKIR) is on record?
Answer: Its IC50 is 0.3 nM.

Question: With `CC1(OCc2cc(C(F)(F)F)cc(C(F)(F)F)c2)CCCNC1c1ccccc1` (stereo not shown) [Example 48, 3-((3,5-Bis(trifluoromethyl)phenyl)methyloxy)-3-methyl-2-phenylpiperidine oxalate salt] as the molecule, how does the IC50 (read-out: IC50 @ NKIR) read?
Answer: The IC50 was 45 nM.

Question: For `OCC1CC[C@H](OCc2cc(C(F)(F)F)cc(C(F)(F)F)c2)[C@H](c2ccccc2)N1` (stereo partly shown) [Example 55], which IC50 (read-out: IC50 @ NKIR) is on record?
Answer: Its IC50 is 2 nM.

Question: How did the IC50 (read-out: IC50 @ NKIR) turn out when `CC(C)(C)NC(=O)CN1CCC[C@H](OCc2cc(C(F)(F)F)cc(C(F)(F)F)c2)[C@@H]1c1ccccc1` [Example 56, (2S,3S)-3-((3,5-Bis(trifluoromethyl)phenyl)methyloxy-1-((N-t-butyl)carboxamidomethyl)-2-phenylpiperidinium hydrochloride] was run?
Answer: The IC50 was 25 nM.

Question: For `O=C(CN1CCC[C@H](OCc2cc(C(F)(F)F)cc(C(F)(F)F)c2)[C@@H]1c1ccccc1)NC1CC1` [Example 57, (2S,3S)-3-((3,5-Bis(trifluoromethyl)phenyl)methyloxy)-1-((N-cyclopropyl)-2-phenylpiperidinium hydrochloride], which IC50 (read-out: IC50 @ NKIR) is on record?
Answer: Its IC50 is 2.5 nM.

Question: “cis-3-((3,5-Bis(trifluoromethyl)phenyl)methyloxy-1-(N-benzylcarboxamido)methyl-2-phenyl piperidinium hydrochloride [Example 49]” was tested. Which IC50 (read-out: IC50 @ NKIR) did it give?
Answer: The IC50 was 20 nM.
